The values that follow are results of earlier work, collected in paper PMC4682187, “Fusarinine C, a novel siderophore‐based bifunctional chelator for radiolabeling with Gallium‐68” (Journal of Labelled Compounds & Radiopharmaceuticals, 2015).

For data set [1] the following is noted: dilution of DFO; at nanomolar level (<50 nM) DFO does not act as a good chelating agent for gallium. From the text:
Caraco et al. reported that dilution of DFO, an acyclic analogue of FSC, could cause the breakdown of the ^67Ga^3+–DFO complex.

For data set [2] the following is noted: ^68Ga complex of TAFC. An excerpt:
To evaluate this hypothesis, a RGD peptide targeting the ...

`CC(=O)N(O)CCCCCNC(=O)CCC(=O)N(O)CCCCCNC(=O)CCC(=O)N(O)CCCCCN` [^67Ga^3+–DFO complex, desferoxamine B, metal not drawn]: the “Stability of the complex on dilution” value in data set [1] is listed as “breakdown”.

Take `CC(=O)NC1CCCN(O)C(=O)/C=C(/C)CCOC(=O)C(NC(C)=O)CCCN(O)C(=O)/C=C(/C)CCOC(=O)C(NC(C)=O)CCCN(O)C(=O)/C=C(/C)CCOC1=O` (centres unmarked) [TAFC, triacetylfusarinine]: the Metabolic stability entry in data set [2] is “excellent metabolic stabilities”.
